According to ChEMBL document CHEMBL5500396, “Discovery, Multiparametric Optimization, and Solid-State Driven Identification of CHF-6550, a Novel Soft Dual Pharmacology Muscarinic Antagonist and β2 Agonist (MABA) for the Inhaled Treatment of Respiratory Diseases” (J Med Chem, 2024):

Experiments:
in vitro [1] = conditions: rat, plasma
Description: Stability in rat plasma assessed as half-life at 5 uM incubated for 120 mins by LC-MS/MS analysis

[2] = molecular target: Beta-2 adrenergic receptor (Homo sapiens, UniProt P07550)
Description: Displacement of [125I]-Cyanopindolol from human beta2 adrenoceptor assessed as inhibition constant incubated for 1 hrs by Microbeta scintillation counter

in vitro [3] = conditions: human, plasma
Description: Stability in human plasma assessed as half-life at 5 uM incubated for 120 mins by LC-MS/MS analysis

in vitro [4] = conditions: rat, hepatocytes
Description: Metabolic stability in rat hepatocytes assessed as clearance measured per 10^6 cells at 1 uM incubated for 90 mins by LC-MS/MS analysis

in vitro [5] = conditions: guinea pig, plasma
Description: Stability in guinea pig plasma assessed as half-life at 5 uM incubated for 120 mins by LC-MS/MS analysis

in vitro [6] = conditions: human, hepatocytes
Description: Metabolic stability in human hepatocytes assessed as clearance measured per 10^6 cells at 1 uM incubated for 90 mins by LC-MS/MS analysis

[7] = molecular target: Muscarinic acetylcholine receptor M3 (Homo sapiens, UniProt P20309)
Chain of Muscarinic acetylcholine receptor M3 (P20309 whole entry): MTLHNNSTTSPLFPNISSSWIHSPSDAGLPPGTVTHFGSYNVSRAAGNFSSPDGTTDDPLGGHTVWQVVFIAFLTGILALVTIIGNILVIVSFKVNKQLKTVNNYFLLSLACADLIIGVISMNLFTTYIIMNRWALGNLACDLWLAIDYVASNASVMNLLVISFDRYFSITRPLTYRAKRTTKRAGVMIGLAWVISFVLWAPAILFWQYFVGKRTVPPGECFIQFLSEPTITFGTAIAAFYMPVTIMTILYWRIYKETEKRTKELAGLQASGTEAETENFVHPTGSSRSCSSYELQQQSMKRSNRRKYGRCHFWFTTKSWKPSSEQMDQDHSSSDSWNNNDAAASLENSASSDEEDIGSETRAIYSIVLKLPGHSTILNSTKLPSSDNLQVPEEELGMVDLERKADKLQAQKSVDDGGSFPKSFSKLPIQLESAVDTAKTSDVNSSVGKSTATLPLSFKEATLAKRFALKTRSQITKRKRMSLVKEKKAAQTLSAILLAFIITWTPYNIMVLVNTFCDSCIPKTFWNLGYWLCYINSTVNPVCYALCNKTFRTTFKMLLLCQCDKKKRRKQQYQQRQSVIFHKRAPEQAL
Description: Displacement of Scopolamine methyl chloride,[N-methyl-3H] from human muscarinic M3 receptor assessed as inhibition constant incubated for 2 hrs by Microbeta scintillation counter

Chain of Beta-2 adrenergic receptor (P07550 whole entry): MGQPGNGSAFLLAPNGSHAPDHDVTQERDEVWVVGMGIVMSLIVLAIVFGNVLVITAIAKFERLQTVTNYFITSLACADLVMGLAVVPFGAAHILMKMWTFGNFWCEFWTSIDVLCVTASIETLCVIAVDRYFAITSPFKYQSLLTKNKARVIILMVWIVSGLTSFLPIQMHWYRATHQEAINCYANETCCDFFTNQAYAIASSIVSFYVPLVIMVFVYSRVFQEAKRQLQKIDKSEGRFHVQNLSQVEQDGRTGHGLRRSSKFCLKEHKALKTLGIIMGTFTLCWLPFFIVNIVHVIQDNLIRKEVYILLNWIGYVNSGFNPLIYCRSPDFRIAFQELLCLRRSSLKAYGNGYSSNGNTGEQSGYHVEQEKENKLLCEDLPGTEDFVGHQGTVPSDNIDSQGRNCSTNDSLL

Structure (SMILES): COc1cc(C(=O)NCCCOc2cccc([C@](O)(C(=O)O[C@@H]3CCCN(C)C3)c3ccccc3)c2)c(F)cc1CNC[C@H](O)c1ccc(O)c2[nH]c(=O)ccc12
- half-life at 2 h, 5 µM (in vitro [1]): 87 min
- Ki [2]: 0.0158 nM
- half-life at 2 h, 5 µM (in vitro [3]): > 150 min
- hepatocyte CLint at 1.5 h, 1 µM (in vitro [4]): 40 µL/min/1e6 cells
- half-life at 2 h, 5 µM (in vitro [5]): > 150 min
- hepatocyte CLint at 1.5 h, 1 µM (in vitro [6]): 7 µL/min/1e6 cells

Structure (SMILES): O=C(NCCCOc1cccc([C@](O)(C(=O)O[C@@H]2CCN(Cc3ccccc3)C2)c2ccccc2)c1)c1ccc(CNC[C@H](O)c2ccc(O)c3[nH]c(=O)ccc23)cc1
- half-life at 2 h, 5 µM (in vitro [1]): 5 min
- Ki [2]: 0.158 nM
- half-life at 2 h, 5 µM (in vitro [3]): > 150 min
- hepatocyte CLint at 1.5 h, 1 µM (in vitro [4]): 69 µL/min/1e6 cells
- half-life at 2 h, 5 µM (in vitro [5]): 37 min
- hepatocyte CLint at 1.5 h, 1 µM (in vitro [6]): 23 µL/min/1e6 cells

Structure (SMILES): CN1CCC[C@@H](OC(=O)[C@](O)(c2ccccc2)c2cccc(OCCCNC(=O)c3cnc(CNC[C@H](O)c4ccc(O)c5[nH]c(=O)ccc45)nc3)c2)C1.O=CO
- half-life at 2 h, 5 µM (in vitro [1]): 13 min
- Ki [2]: 0.0251 nM
- half-life at 2 h, 5 µM (in vitro [3]): > 150 min
- hepatocyte CLint at 1.5 h, 1 µM (in vitro [4]): 33 µL/min/1e6 cells
- half-life at 2 h, 5 µM (in vitro [5]): 8 min
- hepatocyte CLint at 1.5 h, 1 µM (in vitro [6]): < 2 µL/min/1e6 cells

Structure (SMILES): CN1CCC(COC(=O)[C@](O)(c2ccccc2)c2cccc(OCCCNC(=O)c3ccc(CNC[C@H](O)c4ccc(O)c5[nH]c(=O)ccc45)cc3)c2)CC1
- half-life at 2 h, 5 µM (in vitro [1]): 115 min
- Ki [7]: 0.501 nM
- Ki [2]: 0.0398 nM
- half-life at 2 h, 5 µM (in vitro [3]): > 150 min
- hepatocyte CLint at 1.5 h, 1 µM (in vitro [4]): 15 µL/min/1e6 cells
- half-life at 2 h, 5 µM (in vitro [5]): 11 min
- hepatocyte CLint at 1.5 h, 1 µM (in vitro [6]): < 2 µL/min/1e6 cells

Structure (SMILES): O=C(NCCCCNC[C@H](O)c1ccc(O)c2[nH]c(=O)ccc12)c1ccc(C(=O)N2CCC(C(=O)O[C@H]3CN4CCC3CC4)(c3ccccc3)CC2)cc1
- Ki [7]: 1.58 nM
- Ki [2]: 0.631 nM

Structure (SMILES): CN1CCC[C@H](OC(=O)[C@](O)(c2ccccc2)c2cccc(OCCCNC(=O)c3ccc(CNC[C@H](O)c4ccc(O)c5[nH]c(=O)ccc45)cc3)c2)C1.O=CO.O=CO
- half-life at 2 h, 5 µM (in vitro [1]): 8 min
- Ki [2]: 0.0251 nM
- half-life at 2 h, 5 µM (in vitro [3]): > 150 min
- hepatocyte CLint at 1.5 h, 1 µM (in vitro [4]): 52 µL/min/1e6 cells
- half-life at 2 h, 5 µM (in vitro [5]): 51 min
- hepatocyte CLint at 1.5 h, 1 µM (in vitro [6]): 5 µL/min/1e6 cells

Structure (SMILES): O=C(NCCCOc1cccc([C@](O)(C(=O)O[C@H]2CCN(Cc3ccccc3)C2)c2ccccc2)c1)c1ccc(CNC[C@H](O)c2ccc(O)c3[nH]c(=O)ccc23)cc1
- half-life at 2 h, 5 µM (in vitro [1]): 15 min
- Ki [2]: 0.398 nM
- half-life at 2 h, 5 µM (in vitro [3]): > 150 min
- hepatocyte CLint at 1.5 h, 1 µM (in vitro [4]): 71 µL/min/1e6 cells
- half-life at 2 h, 5 µM (in vitro [5]): 12 min
- hepatocyte CLint at 1.5 h, 1 µM (in vitro [6]): 22 µL/min/1e6 cells

Structure (SMILES): O=C(NCCCOc1cccc([C@](O)(C(=O)OC[C@H]2CCN(Cc3ccccc3)C2)c2ccccc2)c1)c1ccc(CNC[C@H](O)c2ccc(O)c3[nH]c(=O)ccc23)cc1
- half-life at 2 h, 5 µM (in vitro [1]): 32 min
- Ki [2]: 0.126 nM
- half-life at 2 h, 5 µM (in vitro [3]): > 128 min
- hepatocyte CLint at 1.5 h, 1 µM (in vitro [4]): 38 µL/min/1e6 cells
- half-life at 2 h, 5 µM (in vitro [5]): 56 min
- hepatocyte CLint at 1.5 h, 1 µM (in vitro [6]): 7 µL/min/1e6 cells

Structure (SMILES): O=C(NCCCOc1cccc([C@](O)(C(=O)OC2CCN(Cc3ccccc3)CC2)c2ccccc2)c1)c1ccc(CNC[C@H](O)c2ccc(O)c3[nH]c(=O)ccc23)cc1
- half-life at 2 h, 5 µM (in vitro [1]): 135 min
- Ki [2]: 0.0501 nM
- half-life at 2 h, 5 µM (in vitro [3]): > 150 min
- hepatocyte CLint at 1.5 h, 1 µM (in vitro [4]): 64 µL/min/1e6 cells
- half-life at 2 h, 5 µM (in vitro [5]): 8 min
- hepatocyte CLint at 1.5 h, 1 µM (in vitro [6]): 12 µL/min/1e6 cells

Structure (SMILES): O=C(c1ccc(CNC[C@H](O)c2ccc(O)c3[nH]c(=O)ccc23)cc1)N1CC(COc2cccc([C@](O)(C(=O)OCC3CCN(Cc4ccccc4)CC3)c3ccccc3)c2)C1
- half-life at 2 h, 5 µM (in vitro [1]): 50 min
- Ki [7]: 1.26 nM
- Ki [2]: 1 nM
- half-life at 2 h, 5 µM (in vitro [3]): > 150 min
- hepatocyte CLint at 1.5 h, 1 µM (in vitro [4]): 22 µL/min/1e6 cells
- half-life at 2 h, 5 µM (in vitro [5]): 19 min
- hepatocyte CLint at 1.5 h, 1 µM (in vitro [6]): 16 µL/min/1e6 cells

Structure (SMILES): CN1CCC(COC(=O)[C@](O)(c2ccccc2)c2cccc(-c3ccc(CNC(=O)c4ccc(CNC[C@H](O)c5ccc(O)c6[nH]c(=O)ccc56)cc4)s3)c2)CC1
- half-life at 2 h, 5 µM (in vitro [1]): 88 min
- Ki [7]: 2.51 nM
- Ki [2]: 0.398 nM
- half-life at 2 h, 5 µM (in vitro [3]): > 150 min
- hepatocyte CLint at 1.5 h, 1 µM (in vitro [4]): 21 µL/min/1e6 cells
- half-life at 2 h, 5 µM (in vitro [5]): 48 min
- hepatocyte CLint at 1.5 h, 1 µM (in vitro [6]): 27 µL/min/1e6 cells

Structure (SMILES): COc1cc(C(=O)NCCCOc2cccc([C@](O)(C(=O)O[C@@H]3CCCN(C)C3)c3ccccc3)c2)c(Cl)cc1CNC[C@H](O)c1ccc(O)c2[nH]c(=O)ccc12
- half-life at 2 h, 5 µM (in vitro [1]): 54 min
- Ki [2]: 0.0251 nM
- half-life at 2 h, 5 µM (in vitro [3]): > 150 min
- hepatocyte CLint at 1.5 h, 1 µM (in vitro [4]): 36 µL/min/1e6 cells
- half-life at 2 h, 5 µM (in vitro [5]): 133 min
- hepatocyte CLint at 1.5 h, 1 µM (in vitro [6]): 6 µL/min/1e6 cells

Structure (SMILES): COc1cc(C(=O)NCCCOc2cccc([C@](O)(C(=O)O[C@@H]3CCCN(C)C3)c3ccccc3)c2)ccc1CNC[C@H](O)c1ccc(O)c2[nH]c(=O)ccc12
- half-life at 2 h, 5 µM (in vitro [1]): 17 min
- Ki [2]: 0.0158 nM
- half-life at 2 h, 5 µM (in vitro [3]): > 150 min
- hepatocyte CLint at 1.5 h, 1 µM (in vitro [4]): 29 µL/min/1e6 cells
- half-life at 2 h, 5 µM (in vitro [5]): 112 min
- hepatocyte CLint at 1.5 h, 1 µM (in vitro [6]): 4 µL/min/1e6 cells

Structure (SMILES): O=C(NCCCOc1cccc([C@](O)(C(=O)OCC2CCN(C3CCC3)CC2)c2ccccc2)c1)c1ccc(CNC[C@H](O)c2ccc(O)c3[nH]c(=O)ccc23)cc1
- half-life at 2 h, 5 µM (in vitro [1]): 19 min
- Ki [7]: 1 nM
- Ki [2]: 0.0251 nM
- half-life at 2 h, 5 µM (in vitro [3]): > 150 min
- hepatocyte CLint at 1.5 h, 1 µM (in vitro [4]): 38 µL/min/1e6 cells
- half-life at 2 h, 5 µM (in vitro [5]): 119 min
- hepatocyte CLint at 1.5 h, 1 µM (in vitro [6]): 6 µL/min/1e6 cells
